From patent US10047086B2, “Imidazopyridines and imidazopyrazines as LSD1 inhibitors” (Incyte Corporation, priority 2014, dated 2018) come the findings set out here.

pIC50: −log10 of the molar value.

The target in the experiment is LSD-1 enzyme (Homo sapiens (Human), UniProt O60341). In words: LANCE LSD1/KDM1A demethylase assay (LSD1 histone demethylase biochemical assay). Conditions: 1 nM LSD-1 enzyme, 1 hour preincubation at 25° C., 0.4 μM Biotin-labeled Histone H3 peptide substrate. How it is done: LSD1 Histone Demethylase Biochemical Assay
LANCE LSD1/KDM1A demethylase assay-10 μL of 1 nM LSD-1 enzyme (ENZO BML-SE544-0050) in the assay buffer (50 mM Tris, pH 7.5, 0.01% Tween-20, 25 mM NaCl, 5 mM DTT) were preincubated for 1 hour at 25° C. with 0.8 μL compound/DMSO dotted in black 384 well polystyrene plates. […] Reactions were stopped by addition of 10 μL 1× LANCE Detection Buffer (PerkinElmer CR97-100) supplemented with 1.5 nM Eu-anti-unmodified H3K4 Antibody (PerkinElmer TRF0404), and 225 nM LANCE Ultra Streptavidin (PerkinElmer TRF102) along with 0.9 mM Tranylcypromine-HCl (Millipore 616431). After stopping the reactions plates were incubated for 30 minutes and read on a PHERAstar FS plate reader (BMG Labtech).
Background: In TR-FRET formats the signal depends on donor and acceptor labels being close together.
The term pIC50 denotes the IC50 on a negative log10 scale, so that one unit is a factor of ten. Higher therefore signals a low IC50. For the compound `CN1CCC[C@@H](COc2cc(-c3ccc(C#N)cc3)c(-c3ccc4c(c3)CC(=O)N4C)n3cncc23)C1` [Example 64, (R)-4-(5-(1-methyl-2-oxoindolin-5-yl)-8-((1-methylpiperidin-3-yl)methoxy)imidazo[1,5-a]pyridin-6-yl)benzonitrile], the pIC50 is not below 7.30. The value for `CN1CCC[C@@H](COc2cc(-c3ccc(C#N)cc3)c(-c3ccc4c(c3)OCC(=O)N4C)n3cncc23)C1` [Example 65, (R)-4-(5-(4-methyl-3-oxo-3,4-dihydro-2H-benzo[b][1,4]oxazin-7-yl)-8-((1-methylpiperidin-3-yl)methoxy)imidazo[1,5-a]pyridin-6-yl)benzonitrile] was not below 7.30. For `CCN1CCC[C@@H](COc2cc(-c3ccc(C#N)cc3)c(-c3cnc4c(c3)OCCO4)n3cncc23)C1` [Example 67, (R)-4-(5-(2,3-dihydro-[1,4]dioxino[2,3-b]pyridin-7-yl)-8-((1-ethylpiperidin-3-yl)methoxy)imidazo[1,5-a]pyridin-6-yl)benzonitrile], the pIC50 was not below 7.30. In the case of `COc1ncc(-c2c(-c3ccc(C#N)cc3)cc(OC[C@@H]3CCCN(C)C3)c3cncn23)cc1F` [Example 70, (R)-4-(5-(5-fluoro-6-methoxypyridin-3-yl)-8-((1-methylpiperidin-3-yl)methoxy)imidazo[1,5-a]pyridin-6-yl)benzonitrile] it was not below 7.30.

`CN1CCC[C@@H](COc2cc(-c3ccc(C#N)cc3)c(-c3ccc(N4CCCC4=O)nc3)n3cncc23)C1` [Example 71, (R)-4-(8-((1-methylpiperidin-3-yl)methoxy)-5-(6-(2-oxopyrrolidin-1-yl)pyridin-3-yl)imidazo[1,5-a]pyridin-6-yl)benzonitrile] showed a pIC50 not below 7.30. In the case of `COc1ccc(-c2c(-c3ccc(C#N)cc3)cc(OC[C@@H]3CCCN(C)C3)c3cncn23)cn1` [Example 72, 4-(5-(6-methoxypyridin-3-yl)-8-{[(3R)-1-methylpiperidin-3-yl]methoxy}imidazo[1,5-a]pyridin-6-yl)benzonitrile] it was not below 7.30; in that of `CN1CCC[C@@H](COc2cc(-c3ccc(C#N)cc3)c(-c3cc(F)c(CO)c(F)c3)n3cncc23)C1` [Example 73, (R)-4-(5-(3,5-difluoro-4-(hydroxymethyl)phenyl)-8-((1-methylpiperidin-3-yl)methoxy)imidazo[1,5-a]pyridin-6-yl)benzonitrile], not below 7.30.

As for `Cc1cc(-c2c(-c3ccc(C#N)cc3)cc(OC[C@@H]3CCCN(C)C3)c3cncn23)cc(F)c1CO` [Example 75, 4-(5-[3-fluoro-4-(hydroxymethyl)-5-methylphenyl]-8-{[(3R)-1-methylpiperidin-3-yl]methoxy}imidazo[1,5-a]pyridin-6-yl)benzonitrile], the pIC50 was not below 7.30.

Take `Cc1ncc(-c2c(-c3ccc(C#N)cc3)cc(OC[C@@H]3CCCN(C)C3)c3cncn23)cc1O` [Example 76, 4-(5-(5-hydroxy-6-methylpyridin-3-yl)-8-{[(3R)-1-methylpiperidin-3-yl]methoxy}imidazo[1,5-a]pyridin-6-yl)benzonitrile]: the pIC50 is not below 7.30. In the case of `CN1CCC[C@@H](COc2cc(-c3ccc(C#N)cc3)c(-c3ccc(C(C)(C)O)cc3)n3cncc23)C1` [Example 77, 4-(5-[4-(1-hydroxy-1-methylethyl)phenyl]-8-{[(3R)-1-methylpiperidin-3-yl]methoxy}imidazo[1,5-a]pyridin-6-yl)benzonitrile] it was not below 7.30. In turn, `CN1CCC[C@@H](COc2cc(-c3ccc(C#N)cc3)c(-c3cnc(N4CCOCC4)c(F)c3)n3cncc23)C1` [Example 78, 4-(5-(5-fluoro-6-morpholin-4-ylpyridin-3-yl)-8-{[(3R)-1-methylpiperidin-3-yl]methoxy}imidazo[1,5-a]pyridin-6-yl)benzonitrile] gave a pIC50 not below 7.30. In the case of `Cc1cc(-c2c(-c3ccc(C#N)cc3)cc(OC[C@@H]3CCCN(C)C3)c3cncn23)ccc1CO` [Example 79, 4-(5-[4-(hydroxymethyl)-3-methylphenyl]-8-{[(3R)-1-methylpiperidin-3-yl]methoxy}imidazo[1,5-a]pyridin-6-yl)benzonitrile] it was not below 7.30; in that of `CN1CCC[C@@H](COc2cc(-c3ccc(C#N)cc3)c(-c3ccc(N(C)C)nc3)n3cncc23)C1` [Example 80, 4-(5-[6-(dimethylamino)pyridin-3-yl]-8-{[(3R)-1-methylpiperidin-3-yl]methoxy}imidazo[1,5-a]pyridin-6-yl)benzonitrile], not below 7.30.

`Cc1cc(-c2c(-c3ccc(C#N)cc3)cc(OC[C@@H]3CCCN(C)C3)c3cncn23)cnc1C` [Example 81, 4-(5-(5,6-dimethylpyridin-3-yl)-8-{[(3R)-1-methylpiperidin-3-yl]methoxy}imidazo[1,5-a]pyridin-6-yl)benzonitrile] gave a pIC50 not below 7.30. The compound `CN1CCC[C@@H](COc2cc(-c3ccc(C#N)cc3)c(-c3ccc(CN(C)C(=O)N(C)C)c(F)c3)n3cncc23)C1` [Example 82, N-[4-(6-(4-cyanophenyl)-8-{[(3R)-1-methylpiperidin-3-yl]methoxy}imidazo[1,5-a]pyridin-5-yl)-2-fluorobenzyl]-N,N′,N′-trimethylurea] showed a negative-log IC50 (pIC50) not below 7.30. The value for `CN(C)C1CCN(c2nc(-c3ccc(C#N)cc3)c(-c3ccc4c(c3)ncn4C)n3cncc23)CC1` [Example 83, 4-[8-[4-(dimethylamino)piperidin-1-yl]-5-(1-methyl-1H-benzimidazol-5-yl)imidazo[1,5-a]pyrazin-6-yl]benzonitrile] was not below 7.30.

Compound `CN(C)C1CCN(c2nc(-c3ccc(C#N)cc3)c(-c3cnc4c(ccn4C)c3)n3cncc23)CC1` [Example 84, 4-(8-(4-(dimethylamino)piperidin-1-yl)-5-(1-methyl-1H-pyrrolo[2,3-b]pyridin-5-yl)imidazo[1,5-a]pyrazin-6-yl)benzonitrile] gave a negative-log IC50 (pIC50) not below 7.30. In the case of `CN1CCC[C@@H](COc2nc(-c3ccc(C#N)cc3)c(-c3cnc4c(ccn4C)c3)n3cncc23)C1` [Example 85, 4-[8-{[(3R)-1-methylpiperidin-3-yl]methoxy}-5-(1-methyl-1H-pyrrolo[2,3-b]pyridin-5-yl)imidazo[1,5-a]pyrazin-6-yl]benzonitrile] it was not below 7.30. As to `Cc1cc(-c2c(-c3ccc(C#N)cc3)nc(OC[C@@H]3CCCN(C)C3)c3cncn23)cnc1C` [Example 86, 4-(5-(5,6-dimethylpyridin-3-yl)-8-{[(3R)-1-methylpiperidin-3-yl]methoxy}imidazo[1,5-a]pyrazin-6-yl)benzonitrile], the pIC50 was not below 7.30. Regarding `COC(=O)N(C)c1ccc(-c2c(-c3ccc(C#N)cc3)nc(OC[C@@H]3CCCN(C)C3)c3cncn23)cc1F` [Example 87, (R)-methyl (4-(6-(4-cyanophenyl)-8-((1-methylpiperidin-3-yl)methoxy)imidazo[1,5-a]pyrazin-5-yl)-2-fluorophenyl)(methyl)carbamate], the pIC50 was not below 7.30. The value for `Cc1cc(-c2c(-c3ccc(C#N)cc3)nc(N3CCC(N(C)C)CC3)c3cncn23)cnc1C` [Example 89, 4-[8-[4-(dimethylamino)piperidin-1-yl]-5-(5,6-dimethylpyridin-3-yl)imidazo[1,5-a]pyrazin-6-yl]benzonitrile] was not below 7.30; that for `COc1ncc(-c2c(-c3ccc(C#N)cc3)nc(N3CCC(N(C)C)CC3)c3cncn23)cc1F` [Example 90, 4-[8-[4-(dimethylamino)piperidin-1-yl]-5-(5-fluoro-6-methoxypyridin-3-yl)imidazo[1,5-a]pyrazin-6-yl]benzonitrile] was not below 7.30.

As to `Cc1ccc(-c2c(-c3ccc(C#N)cc3)nc(N3CCC(N(C)C)CC3)c3cncn23)cc1CO` [Example 91, 4-{8-[4-(dimethylamino)piperidin-1-yl]-5-[3-(hydroxymethyl)-4-methylphenyl]imidazo[1,5-a]pyrazin-6-yl}benzonitrile], the pIC50 is not below 7.30. The value for `Cc1ccc(-c2c(-c3ccc(C#N)cc3)nc(N3CCC(N(C)C)CC3)c3cncn23)c(CO)c1` [Example 92, 4-{8-[4-(dimethylamino)piperidin-1-yl]-5-[2-(hydroxymethyl)-4-methylphenyl]imidazo[1,5-a]pyrazin-6-yl}benzonitrile] was not below 7.30; that for `COc1ncc(-c2c(-c3ccc(C#N)cc3)nc(N3CCC(N(C)C)CC3)c3cncn23)cc1C` [Example 93, 4-[8-[4-(dimethylamino)piperidin-1-yl]-5-(6-methoxy-5-methylpyridin-3-yl)imidazo[1,5-a]pyrazin-6-yl]benzonitrile] was not below 7.30. The value for `COC(=O)N(C)c1ccc(-c2c(-c3ccc(C#N)cc3)nc(N3CCC(N(C)C)CC3)c3cncn23)cc1` [Example 95, methyl (4-(6-(4-cyanophenyl)-8-(4-(dimethylamino)piperidin-1-yl)imidazo[1,5-a]pyrazin-5-yl)phenyl)(methyl)carbamate] was not below 7.30; that for `Cc1ncc(-c2c(-c3ccc(C#N)cc3)nc(N3CCC(N(C)C)CC3)c3cncn23)cc1F` [Example 97, 4-[8-[4-(dimethylamino)piperidin-1-yl]-5-(5-fluoro-6-methylpyridin-3-yl)imidazo[1,5-a]pyrazin-6-yl]benzonitrile] was not below 7.30. `CN(C)C1CCN(c2nc(-c3ccc(C#N)cc3)c(-c3ccc(OC(F)F)nc3)n3cncc23)CC1` [Example 98, 4-{5-[6-(difluoromethoxy)pyridin-3-yl]-8-[4-(dimethylamino)piperidin-1-yl]imidazo[1,5-a]pyrazin-6-yl}benzonitrile] gave a pIC50 not below 7.30.
